One data set deals with cancer cells. As to the kind of experiment: LDH assay of cytotoxicity. Format: cell-based. The note with it: 0.5 mg/mL. From the text:
(§1) In addition, an LDH assay was adopted to determine the cytotoxicity of ATCA and detect the cytotoxicity of the drug.

A further data set concerns normal cells (HBE). As to the kind of experiment: LDH assay of cytotoxicity. It is filed as cell-based. The note with it: 0.5 mg/mL.
Description: as §1

The target in a further data set is T1, EIF2S1 (Homo sapiens, UniProt P05198).
T1 construct: endogenous in cells; host or cells: H1299
T1 sequence (P05198 whole entry): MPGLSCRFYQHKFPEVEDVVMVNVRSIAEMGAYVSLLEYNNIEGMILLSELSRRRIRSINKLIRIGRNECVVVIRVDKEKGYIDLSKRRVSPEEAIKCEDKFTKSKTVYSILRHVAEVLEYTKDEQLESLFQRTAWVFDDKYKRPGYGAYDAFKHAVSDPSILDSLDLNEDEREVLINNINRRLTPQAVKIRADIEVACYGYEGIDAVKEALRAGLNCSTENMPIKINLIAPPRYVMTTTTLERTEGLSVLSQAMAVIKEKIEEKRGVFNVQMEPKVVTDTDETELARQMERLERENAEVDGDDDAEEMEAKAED
As to the kind of experiment: CESTA-WB (cellular thermal shift assay-Western blotting), H1299 cell lysate. Format: binding. The note with it: ATCA 10 nM to 10 mM, 55° C. for 3 min, FIG. 1. The method, then:
(§2) CESTA-WB experiment: H1299 cells were plated and cultured in a 15 cm dish, and when a cell density reached about 90% to 100%, the medium was aspirated; the cells were washed twice with PBS, and 2 mL of Lysis Buffer (RB Buffer, 10% N-Dodecyl-β-D-maltoside, and 1× protease inhibitor) was added to each dish and placed flatly on ice to allow lysis for 30 min, and a cell lysate was collected and centrifuged at 17,000 g, 4° C. for 10 min; a resulting supernatant was quantified using a BCA kit. 45 μL of a whole protein was added in a PCR tube, ATCA was added to final concentrations of 10 mM, 1 mM, 100 μM, 10 μM, 1 μM, 100 nM, and 10 nM, respectively, and allowed to stand at 25° C. for 30 min to allow the ATCA to fully interact with the whole protein; while another two tubes without ATCA were taken as controls. The experimental group was treated at 55° C. for 3 min, while one tube in the control group was treated at 37° C. for 3 min, and the other tube was treated at 50° C. for 3 min; centrifugation was conducted at 17,000×g for 10 min at 4° C. to remove denatured proteins. The supernatant was transferred into a new PCR tube, and 5 μg of the supernatant was added into 5×SDS Loading Buffer to allow denaturation in a 100° C. water bath; the Western Blotting was conducted to quantify EEF2, EIF2S1, B-actin, and Vinculin proteins.
(§3) Western Blotting experiment: the sample and molecular weight standard of pre-stained protein were loaded onto an SDS-PAGE gel (10 cmx 10 cm) to allow electrophoresis at 100 V for 40 min. The proteins in SDS-PAGE were transferred to nitrocellulose membrane at 100 V, 230 mA within 1 h. After transfer, the nitrocellulose membrane was washed with 25 mL of TBS for 5 min at room temperature. The nitrocellulose membrane was placed in 25 mL of blocking buffer (TBST, 5% skim milk) and incubated at room temperature for 1 h. The membrane was washed three times with 15 mL TBST, 5 min each. […]
A general note: In western blotting, separated proteins are transferred to a membrane and probed.

In the next data set the target is T2, Vinculin (Homo sapiens, UniProt P18206).
T2 construct: endogenous in cells; host or cells: H1299
T2 sequence (P18206 1-1066 isoform P18206-2): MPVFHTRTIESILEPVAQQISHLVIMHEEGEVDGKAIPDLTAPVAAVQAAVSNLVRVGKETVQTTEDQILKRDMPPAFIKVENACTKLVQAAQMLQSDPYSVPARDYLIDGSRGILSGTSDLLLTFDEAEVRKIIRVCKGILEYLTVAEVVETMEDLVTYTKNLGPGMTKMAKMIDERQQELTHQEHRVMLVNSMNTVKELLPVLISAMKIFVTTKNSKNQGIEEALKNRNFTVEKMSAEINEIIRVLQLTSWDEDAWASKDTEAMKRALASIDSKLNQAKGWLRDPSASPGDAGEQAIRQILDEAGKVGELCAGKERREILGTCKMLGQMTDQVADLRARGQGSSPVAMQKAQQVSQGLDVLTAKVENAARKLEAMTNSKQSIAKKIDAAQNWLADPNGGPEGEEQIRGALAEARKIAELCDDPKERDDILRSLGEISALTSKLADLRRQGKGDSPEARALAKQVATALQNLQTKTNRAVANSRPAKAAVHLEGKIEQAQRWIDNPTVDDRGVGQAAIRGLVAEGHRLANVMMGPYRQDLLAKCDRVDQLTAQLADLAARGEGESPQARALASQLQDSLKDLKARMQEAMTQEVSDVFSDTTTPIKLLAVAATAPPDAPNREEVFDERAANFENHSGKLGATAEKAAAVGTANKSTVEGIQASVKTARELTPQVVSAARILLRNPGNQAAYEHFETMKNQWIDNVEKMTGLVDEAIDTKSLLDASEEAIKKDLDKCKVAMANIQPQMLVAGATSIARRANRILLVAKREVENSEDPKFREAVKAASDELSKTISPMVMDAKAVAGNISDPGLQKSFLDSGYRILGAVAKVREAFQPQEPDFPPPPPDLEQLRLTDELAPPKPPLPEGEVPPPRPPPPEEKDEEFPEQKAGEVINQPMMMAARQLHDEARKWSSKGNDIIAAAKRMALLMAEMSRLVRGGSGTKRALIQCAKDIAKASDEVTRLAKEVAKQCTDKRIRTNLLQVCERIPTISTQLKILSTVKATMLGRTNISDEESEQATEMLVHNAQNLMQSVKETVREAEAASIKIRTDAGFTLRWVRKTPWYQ
The data set is described as above. Format: binding. Particulars: ATCA 10 nM to 10 mM, 55° C. for 3 min, FIG. 1. The procedure: as §2, §3

The structures appear in SMILES notation.

As for `O=C(O)C1=CC(=C(c2ccc(O)c(C(=O)O)c2)c2ccc(O)c(C(=O)O)c2)C=CC1=O` [ATCA, aurintricarboxylic acid], the “cytotoxicity to cancer cells (LDH)” value in the data set with cancer cells is given as “did not cause obvious cytotoxicity”. Besides, the “cytotoxicity to normal cells (LDH)” value in the data set on normal cells (HBE) was “did not cause obvious cytotoxicity”. Further, the “binding to target protein EIF2S1” value at EIF2S1 is “binds”. Besides, on Vinculin, the “binding to non-target protein Vinculin” value is “did not bind”.

These data come from patent US20250222011A1, “DRUG TARGET FOR INHIBITING TUMOR, USE, AND ORAL DRUG” (CHI BIOTECH CO., LTD., priority 2024, published 2025).
